From article PMC5556071, “ATR inhibition facilitates targeting of leukemia dependence on convergent nucleotide biosynthetic pathways” (Nature Communications, 2017)
Several values for one entry are separate records, joined by “and”; a condition that tells them apart may be missing. Equal values may be shown once.

Tests used:
CEM cells [1] = test: Cell cycle analysis of asynchronous cells by flow cytometry (S-phase population, S-phase arrest); assay type: cell-based, human; settings: asynchronous CEM, 12 h, VE-822 1 µM, DI-82 1 µM
Experimental: Cell cycle histograms. Cells were plated at a density of 0.5 x 10^6 cells/mL in respective media or drug treated media. Following 24 h incubation, cells were harvested and washed twice with PBS twice before staining with 0.5 ml of propidium iodide (Calbiochem, #P3566, 1 µg/mL) solution containing Ribonuclease A and 0.3% Triton-X 100. The samples were protected from light before acquisition by flow cytometry.
Cell cycle kinetics and cell cycle progression by intracellular detection of DNA-incorporated 5-ethynyl-2-deoxyuridine (EdU). CEM T-ALL cells were plated at a density of 0.5 x 10^6 cells/mL. Cells were pulsed with 10 µM EdU (Invitrogen) for 1 h, washed twice with PBS, and released in fresh media containing 5 µM deoxyribonucleosides, with and without drugs. Cells were collected at different time points following release in fresh media, and then fixed with 4% paraformaldehyde and permeabilized using saponin perm/wash reagent (Invitrogen). Cells were then stained with azide-Alexa Fluor 647 by Click reaction according to manufacturer’s protocol (Invitrogen; Click-iT EdU Flow cytometry kit, #C10634). […]

CEM cells [2] = test: Targeted LC-MS/MS-MRM of de novo and salvage dCTP biosynthesis (nucleotide pools and newly replicated DNA); assay type: cell-based, human; set-up: key to Substrate utilization Glucose / Substrate utilization dC: ↓: partial decrease/inhibition; ↓↓↓: nearly complete inhibition; ↑: increase; ⟷: no change
Experimental: Cells were transferred into RPMI-1640 without glucose and supplemented with 10% dialyzed FBS (Gibco) containing the following labeled substrates: precursors for de novo [U-^13C6]glucose (Sigma-Aldrich, 389374) at 11 mM; precursors for purine salvage [U-^13C10,^15N5]dA (Cambridge Isotopes, CIL 3896), [^15N5]dA (Cambridge Isotopes, NLM-3895) and [^15N5]dG (Cambridge Isotopes, NLM-3899) at 5 µM or as indicated; and precursors for pyrimidine salvage: [U-^13C9,^15N3]dC (Silantes, 124603602) and [U-^13C10,^15N2]dT (Cambridge Isotopes, CNLM-3902) at 5 µM and [^15N2]orotate (Cambridge Isotopes, NLM-1048) at indicated concentrations. The cells were incubated for 12 h or as indicated before sample collection and processing.
The rates of dCTP incorporation into the DNA were determined using linear regression with procedure GLM in SAS (v. 9.4). DNA % label was transformed using a shifted log addition of 1 due to the presence of zeros in the data set. Rates were calculated using the slope of the regression line for the log transformed data and are presented in the table with the associated standard errors, along with the ratio between the rate of incorporation into DNA by the de novo and salvage pathways (Table 1).
Cell cycle synchronization. Cells were treated with a CDK4/6 inhibitor, Pablociclib or PD-0332991 (Selleckchem, S1116) for 18 h to synchronize them in the G1 phase. Subsequently, cells were washed twice with PBS containing 2% FBS (Omega Scientific) and released into fresh media. […]
Clinical Microarray Core on an Illumina HiSeq3000 using the SeqCap EZ Exome Enrichment Kit v3.0 (Roche).
Reads were mapped to UCSC hg19 (bwa-mem), deduplicaed (PicardTools), and subjected to base quality score recalibration and realignment around known indels according to the Broad Institute Genome Analysis Toolkit (GATK) Best Practices v3.0. Variants in genes associated with nucleotide biosynthesis were identified using the GATK HaplotypeCaller, and annotated with Oncotator (http://portals.broadinstitute.org/oncotator/). dNTP sample processing. 0.5 – 1 x 10^6 cells were collected into 1.5 mL microcentrifuge tubes and centrifuged (450 x g, 4 min, 4 °C). The supernatant was carefully aspirated and the cells were washed twice with 1 mL of cold PBS, followed each time by centrifugation (450 x g, 4 min 4 °C). The PBS were aspirated.
Thereafter, the pellets were treated with 10 µL of 10% trifluoroacetic acid with internal standards (1 µM […]
s, and incubated on ice for 10 min. 40 µL of 500 mM ammonium acetate, pH = 9.3, with the same internal standard (1 µM [15N3]dCMP and [15N3]dCTP) was then added and the samples were vigorously vortexed again for 30 s. The samples were centrifuged (14,000 x g, 10 min, 4 °C) to remove cell debris. The supernatants (~ 40 µL) were transferred into HPLC injector vials. Stock solutions (10 mM) of rCTP, rCDP, dCMP, dCDP, and dCTP (Sigma Aldrich) were prepared individually in water, and stored at –20 °C before use to generate calibration standards. Calibration standards were prepared and mixed together in water with internal standards (1 µM [15N3]dCMP and [15N3]dCTP) to make working stock concentrations in 100 nM – 100 µM range.
Calibration standards were diluted 10-fold into the same nucleotide extraction solution of 10% TFA/500 mM ammonium acetate (1:4, v/v) with internal standards (1 µM [15N3]dCMP and [15N3]dCTP) to give a final concentration in 10 nM – 10 µM. Nucleotide and calibration samples were processed together to minimize […]
DNA sample processing. Genomic DNA from 0.5 – 1 x 10^4 cells was extracted using the Quick-gDNA MiniPrep kit (Zymo Research, D3021) and hydrolyzed to nucleosides using the DNA Degradase Plus kit (Zymo Research, E2021), following manufacturer-supplied instructions. In the final step of DNA extraction, 50 µL of […]
water was used to elute the DNA into 1.5 mL microcentrifuge tubes. A nuclease solution (5 µL; 10X buffer/DNA Degradase Plus™/water, 2.5/1/1.5, v/v/v) was added to 20 µL of the eluted genomic DNA in an HPLC injector […]
vial. […]

[3] = CEM 12 h, 1 uM VE-822, 1 uM DI-82, 500 nM 3-AP, #1-#3
[4] = CEM after release from G1 arrest

## COc1ccc(-c2nc([C@@H](C)Sc3nc(N)cc(N)n3)c(C)s2)cc1OCCNS(C)(=O)=O [dCKi]
CEM cells [1]; + dNTP (10 µM)
  percentage of cell population in S-phase: 31%
CEM cells [1]; – dNTP
  percentage of cell population in S-phase: 30%
CEM cells [2]; 12 h time point after release from G1 arrest
  reduction of the amount of free dCTP: ~ 50%
CEM cells [2]; [3]
  % sum abundance, de novo DNA-C, mass increase in nucleobase +0, in deoxyribose +3: 0.18% and 0.19%
  % sum abundance, de novo DNA-C, mass increase in nucleobase +0, in deoxyribose +4: 0.58% and 0.55%
  % sum abundance, de novo DNA-C, mass increase in nucleobase +0, in deoxyribose +5: 9.50% and 9.45% and 9.86%
  % sum abundance, de novo DNA-C, mass increase in nucleobase +1, in deoxyribose +3: 0.00%
  % sum abundance, de novo DNA-C, mass increase in nucleobase +1, in deoxyribose +4: 0.09% and 0.07%
  % sum abundance, de novo DNA-C, mass increase in nucleobase +1, in deoxyribose +5: 1.18% and 1.24%
  % sum abundance, de novo DNA-C, mass increase in nucleobase +2, in deoxyribose +4: 0.053% and 0.05%
  % sum abundance, de novo DNA-C, mass increase in nucleobase +2, in deoxyribose +5: 0.82% and 0.79% and 0.87%
  % sum abundance, de novo DNA-C, mass increase in nucleobase +3, in deoxyribose +4: 0.00%
  % sum abundance, de novo DNA-C, mass increase in nucleobase +3, in deoxyribose +5: 0.20% and 0.19%
  % sum abundance, de novo DNA-C, mass increase in nucleobase +4, in deoxyribose +4: 0.00%
  % sum abundance, de novo DNA-C, mass increase in nucleobase +4, in deoxyribose +5: 0.00%
  % sum abundance, salvage DNA-C, mass increase in nucleobase +5, in deoxyribose +0: 0.00%
  % sum abundance, salvage DNA-C, mass increase in nucleobase +5, in deoxyribose +4: 0.00%
  % sum abundance, salvage DNA-C, mass increase in nucleobase +5, in deoxyribose +5: 0.00%
  % sum abundance, salvage DNA-C, mass increase in nucleobase +6, in deoxyribose +0: 0.00%
  % sum abundance, salvage DNA-C, mass increase in nucleobase +6, in deoxyribose +4: 0.00%
  % sum abundance, salvage DNA-C, mass increase in nucleobase +6, in deoxyribose +5: 0.00%
  % sum abundance, salvage DNA-C, mass increase in nucleobase +7, in deoxyribose +0: 0.00%
  % sum abundance, salvage DNA-C, mass increase in nucleobase +7, in deoxyribose +4: 0.00%
  % sum abundance, salvage DNA-C, mass increase in nucleobase +7, in deoxyribose +5: 0.07% and 0.09% and 0.0853%
  % sum abundance, unlabeled DNA-C, mass increase in nucleobase +0, in deoxyribose +0: 77.58% and 77.11% and 77.29%
  % sum abundance, unlabeled DNA-C, mass increase in nucleobase +0, in deoxyribose +1: 4.40% and 4.55% and 4.26%
  % sum abundance, unlabeled DNA-C, mass increase in nucleobase +0, in deoxyribose +2: 0.75% and 0.68% and 0.59%
  % sum abundance, unlabeled DNA-C, mass increase in nucleobase +1, in deoxyribose +0: 4.14% and 4.45% and 4.26%
  % sum abundance, unlabeled DNA-C, mass increase in nucleobase +1, in deoxyribose +1: 0.23% and 0.29% and 0.22%
  % sum abundance, unlabeled DNA-C, mass increase in nucleobase +1, in deoxyribose +2: 0.00%
  % sum abundance, unlabeled DNA-C, mass increase in nucleobase +2, in deoxyribose +0: 0.23% and 0.31% and 0.29%
  % sum abundance, unlabeled DNA-C, mass increase in nucleobase +2, in deoxyribose +1: 0.00%
  % sum abundance, unlabeled DNA-C, mass increase in nucleobase +2, in deoxyribose +2: 0.00%
  % sum abundance, unlabeled DNA-C, mass increase in nucleobase +3, in deoxyribose +0: 0.00%
  % sum abundance, unlabeled DNA-C, mass increase in nucleobase +3, in deoxyribose +1: 0.00%
  % sum abundance, unlabeled DNA-C, mass increase in nucleobase +4, in deoxyribose +0: 0.00%
CEM cells [2]; [4]
  De novo: rate of dCTP incorporation into newly replicated DNA (slope ± standard error of regression line): 0.23 ± 0.01 arbitrary unit
  Ratio (salvage/de novo): 0.082
  Salvage: rate of dCTP incorporation into newly replicated DNA (slope ± standard error of regression line): 0.019 ± 0.004 arbitrary unit
CEM cells [2]; asynchronous CEM, 12 h
  reduction of dCK activity (contribution of labeled [13C9,15N3]dC to intracellular dCMP): ~ 90%
CEM cells [2]; summary Fig. 2g, CEM cells
  Substrate utilization Glucose: ↑
  Substrate utilization dC: ↓↓↓
